# According to US9822130B2, “Triazolo-pyrazinyl derivatives useful as soluble guanylate cyclase activators” (Merck Sharp & Dohme Corp., priority 2014, dated 2017):
# Biological target: T1, sGC α1/β1 heterodimer stably expressed in CHO-K1 cell line (CHO-K1/sGC) (Homo sapiens, UniProt Q02108+Q02153)
# T1 construct: expressed in transfected cells
# T1 sequence (Q02108 1-690): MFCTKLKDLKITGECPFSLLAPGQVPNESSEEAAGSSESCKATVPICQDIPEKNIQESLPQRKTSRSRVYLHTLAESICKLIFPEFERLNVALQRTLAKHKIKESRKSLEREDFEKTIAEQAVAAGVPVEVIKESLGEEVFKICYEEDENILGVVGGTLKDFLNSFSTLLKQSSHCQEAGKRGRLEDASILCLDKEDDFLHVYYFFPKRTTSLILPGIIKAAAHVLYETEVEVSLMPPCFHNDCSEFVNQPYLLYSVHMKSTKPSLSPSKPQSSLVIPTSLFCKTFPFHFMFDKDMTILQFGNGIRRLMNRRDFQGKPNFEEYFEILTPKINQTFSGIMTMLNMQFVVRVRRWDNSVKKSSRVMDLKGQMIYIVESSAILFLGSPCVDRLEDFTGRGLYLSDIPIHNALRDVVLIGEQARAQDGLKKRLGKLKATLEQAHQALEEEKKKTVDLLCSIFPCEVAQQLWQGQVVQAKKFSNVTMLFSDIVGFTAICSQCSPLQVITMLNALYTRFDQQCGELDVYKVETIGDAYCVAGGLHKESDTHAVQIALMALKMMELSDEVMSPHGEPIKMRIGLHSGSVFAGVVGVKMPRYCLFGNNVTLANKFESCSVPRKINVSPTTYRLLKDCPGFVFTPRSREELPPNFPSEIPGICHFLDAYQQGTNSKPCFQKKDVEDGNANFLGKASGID
# T1 sequence (Q02153 1-619): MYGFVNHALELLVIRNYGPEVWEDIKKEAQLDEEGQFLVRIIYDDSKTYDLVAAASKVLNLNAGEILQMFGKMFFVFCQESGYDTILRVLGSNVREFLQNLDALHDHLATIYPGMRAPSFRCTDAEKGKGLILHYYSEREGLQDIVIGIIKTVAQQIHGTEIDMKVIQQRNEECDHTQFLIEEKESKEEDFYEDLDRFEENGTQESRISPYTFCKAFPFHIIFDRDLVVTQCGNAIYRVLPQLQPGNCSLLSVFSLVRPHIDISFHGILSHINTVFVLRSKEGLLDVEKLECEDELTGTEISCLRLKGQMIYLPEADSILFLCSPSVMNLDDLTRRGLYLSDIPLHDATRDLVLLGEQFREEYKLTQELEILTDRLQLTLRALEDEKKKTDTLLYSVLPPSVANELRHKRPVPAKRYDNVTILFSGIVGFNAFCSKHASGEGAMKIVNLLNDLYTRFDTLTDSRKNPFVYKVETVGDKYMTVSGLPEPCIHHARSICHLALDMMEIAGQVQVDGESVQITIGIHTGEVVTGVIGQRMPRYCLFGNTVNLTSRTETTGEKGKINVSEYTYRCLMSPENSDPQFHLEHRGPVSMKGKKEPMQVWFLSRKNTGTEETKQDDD
# Assay: Cell-based sGC Functional Assay (CASA Assay), cGMP generation
# Conditions: CHO-K1/sGC cells, 1 hr at 37° C., cGMP by HTRF, 4P fit; presence or absence of 1 μM DETA-NO not given; read-out: IP (nM) (inflection point)
# Summary of the method: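 CHO-K1 cells stably expressing human sGC α1/β1 (4×10^5/mL, 0.5 mM IBMX) were treated with compounds (2.5% DMSO final) ± 1 μM DETA-NO for 1 hr at 37° C. Intracellular cGMP measured by HTRF. Activity expressed as % of Compound A maximal cGMP; IP and maximum fold induction from 4P fit.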
row,EC50 [nM],SMILES
1,51.7,"CC1(c2cccc(F)c2)C(=O)Nc2nc(-c3cn4ncnc4c(CCC(F)(F)C(F)(F)F)n3)nc(O)c21 (centres unmarked) [Example 129B, 5-(3-fluorophenyl)-4-hydroxy-5-methyl-2-(8-(3,3,4,4,4-pentafluorobutyl)-[1,2,4]triazolo[1,5-a]pyrazin-6-yl)-5,7-dihydro-6H-pyrrolo[2,3-d]pyrimidin-6-one]"
2,77.9,"CC1(c2ccc(C#N)cn2)C(=O)Nc2nc(-c3cn4ncnc4c(CCCC(F)(F)F)n3)nc(N)c21 (centres unmarked) [Example 48A, 6-(4-amino-5-methyl-6-oxo-2-(8-(4,4,4-trifluorobutyl)-[1,2,4]triazolo[1,5-a]pyrazin-6-yl)-6,7-dihydro-5H-pyrrolo[2,3-d]pyrimidin-5-yl)nicotinonitrile]"
3,13.7,"CCCCc1nc(-c2nc(N)c3c(n2)NC(=O)C3(C)c2ccc(Cl)cn2)cn2ncnc12 (centres unmarked) [Example 69A, 4-amino-2-(8-butyl-[1,2,4]triazolo[1,5-a]pyrazin-6-yl)-5-(5-chloropyridin-2-yl)-5-methyl-5H-pyrrolo[2,3-d]pyrimidin-6(7H)-one]"
4,27.1,"CC1(c2ccc(C(F)(F)F)cc2)C(=O)Nc2nc(-c3cn4ncnc4c(CCCC(F)(F)F)n3)nc(N)c21 (centres unmarked) [Example 24B, 4-amino-5-methyl-2-(8-(4,4,4-trifluorobutyl)-[1,2,4]triazolo[1,5-a]pyrazin-6-yl)-5-(4-(trifluoromethyl)phenyl)-5H-pyrrolo[2,3-d]pyrimidin-6(7H)-one]"
5,1450,"CCCc1nc(-c2nc(O)c3c(n2)NC(=O)C3(C)c2ccc(Cl)cc2)cn2nc(C)nc12 (centres unmarked) [Example 168A, 5-(4-chlorophenyl)-4-hydroxy-5-methyl-2-(2-methyl-8-propyl-[1,2,4]triazolo[1,5-a]pyrazin-6-yl)-5H-pyrrolo[2,3-d]pyrimidin-6(7H)-one]"
6,10.1,"Cc1ccc(C2(C)C(=O)Nc3nc(-c4cn5ncnc5c(CCCC(F)(F)F)n4)nc(N)c32)nc1 (centres unmarked) [Example 46B, 4-amino-5-methyl-5-(5-methylpyridin-2-yl)-2-(8-(4,4,4-trifluorobutyl)-[1,2,4]triazolo[1,5-a]pyrazin-6-yl)-5H-pyrrolo[2,3-d]pynmidin-6(7H)-one]"
7,20.9,"CC1(c2ccc(Cl)c(F)c2)C(=O)Nc2nc(-c3cn4ncnc4c(CCC(F)(F)C(F)(F)F)n3)nc(N)c21 (centres unmarked) [Example 5B, 4-amino-5-(4-chloro-3-fluorophenyl)-5-methyl-2-(8-(3,3,4,4,4-pentafluorobutyl)-[1,2,4]triazolo[1,5-a]pyrazin-6-yl)-5H-pyrrolo[2,3-d]pyrimidin-6(7H)-one]"
8,132,"CC1(c2ccc(Cl)cc2)C(=O)Nc2nc(-c3cn4ncnc4c(CCC(F)(F)C(F)(F)F)n3)nc(O)c21 (centres unmarked) [Example 126A, 5-(4-chlorophenyl)-4-hydroxy-5-methyl-2-(8-(3,3,4,4,4-pentafluorobutyl)-[1,2,4]triazolo[1,5-a]pyrazin-6-yl)-5H-pyrrolo[2,3-d]pyrimidin-6(7H)-one]"
9,55.7,"CC1(c2ccc(F)c(F)c2)C(=O)Nc2nc(-c3cn4ncnc4c(CCC(F)(F)F)n3)nc(N)c21 (centres unmarked) [Example 84B, 4-amino-5-(3,4-difluorophenyl)-5-methyl-2-(8-(3,3,3-trifluoropropyl)-[1,2,4]triazolo[1,5-a]pyrazin-6-yl)-5H-pyrrolo[2,3-d]pyrimidin-6(7H)-one]"
10,595,"Cc1nc(C2(C)C(=O)Nc3nc(-c4cn5ncnc5c(CCCC(F)(F)F)n4)nc(N)c32)ccc1C(F)(F)F (racemic) [Example 49B, 4-amino-5-methyl-5-(6-methyl-5-(trifluoromethyl)pyridin-2-yl)-2-(8-(4,4,4-trifluorobutyl)-[1,2,4]triazolo[1,5-a]pyrazin-6-yl)-5H-pyrrolo[2,3-d]pyrimidin-6(7H)-one]"
11,38.3,"CC1(c2ccc(F)cn2)C(=O)Nc2nc(-c3cn4ncnc4c(CCCC(F)(F)F)n3)nc(N)c21 (centres unmarked) [Example 22B, 4-amino-5-(5-fluoropyridin-2-yl)-5-methyl-2-(8-(4,4,4-trifluorobutyl)-[1,2,4]triazolo[1,5-a]pyrazin-6-yl)-5H-pyrrolo[2,3-d]pyrimidin-6(7H)-one]"
12,74.7,"Nc1nc(-c2cn3ncnc3c(CCC(F)(F)C(F)(F)F)n2)nc2c1C(c1nnc(C3CC3)o1)(C1CC1)C(=O)N2 (centres unmarked) [Example 107A, 4-amino-5-cyclopropyl-5-(5-cyclopropyl-1,3,4-oxadiazol-2-yl)-2-(8-(3,3,4,4,4-pentafluorobutyl)-[1,2,4]triazolo[1,5-a]pyrazin-6-yl)-5H-pyrrolo[2,3-d]pyrimidin-6(7H)-one]"
13,36.6,"Cc1nc2c(CCC(F)(F)C(F)(F)F)nc(-c3nc(N)c4c(n3)NC(=O)C4(C)c3ccc(Cl)c(F)c3)cn2n1 (centres unmarked) [Example 90B, 4-amino-5-(4-chloro-3-fluorophenyl)-5-methyl-2-(2-methyl-8-(3,3,4,4,4-pentafluorobutyl)-[1,2,4]triazolo[1,5-a]pyrazin-6-yl)-5H-pyrrolo[2,3-d]pyrimidin-6(7H)-one]"
14,27,"CC1(c2ccc(C(F)(F)F)cn2)C(=O)Nc2nc(-c3cn4ncnc4c(CCCC(F)(F)F)n3)nc(N)c21 (centres unmarked) [Example 25B, 4-amino-5-methyl-2-(8-(4,4,4-trifluorobutyl)-[1,2,4]triazolo[1,5-a]pyrazin-6-yl)-5-(5-(trifluoromethyl)pyridin-2-yl)-5H-pyrrolo[2,3-d]pyrimidin-6(7H)-one]"
15,15.1,"CC1(c2ncc(C(F)(F)F)cn2)C(=O)Nc2nc(-c3cn4ncnc4c(CCCC(F)(F)F)n3)nc(N)c21 (racemic) [Example 51B, 4-amino-5-methyl-2-(8-(4,4,4-trifluorobutyl)-[1,2,4]triazolo[1,5-d]pyrazin-6-yl)-5-(5-(trifluoromethyl)pyrimidin-2-yl)-5H-pyrrolo[2,3-d]pyrimidin-6(7H)-one]"
16,63.2,"CCCc1nc(-c2nc(N)c3c(n2)NC(=O)[C@@]3(C)c2ccc(F)cc2)cn2ncnc12 [Example 52A, (S)-4-amino-5-(4-fluorophenyl)-5-methyl-2-(8-propyl-[1,2,4]triazolo[1,5-a]pyrazin-6-yl)-5,7-dihydro-6H-pyrrolo[2,3-d]pyrimidin-6-one]"
17,183,C[C@@]1(c2ccc(F)cc2)C(=O)Nc2nc(-c3cn4ncnc4c(CCCC(F)(F)F)n3)nc(O)c21 [Example 135A]
18,21.9,"CCCCc1nc(-c2nc(N)c3c(n2)NC(=O)C3(C)c2ccc(Cl)cc2)cn2ncnc12 (centres unmarked) [Example 63A, 4-amino-2-(8-butyl-[1,2,4]triazolo[1,5-a]pyrazin-6-yl)-5-(4-chlorophenyl)-5-methyl-5H-pyrrolo[2,3-d]pyrimidin-6(7H)-one]"
19,260,"Cc1nc2c(CCC(F)(F)C(F)(F)F)nc(-c3nc(N)c4c(n3)NC(=O)C4(C)c3ccc(F)cn3)cn2n1 (centres unmarked) [Example 89B, 4-amino-5-(5-fluoropyridin-2-yl)-5-methyl-2-(2-methyl-8-(3,3,4,4,4-pentafluorobutyl)-[1,2,4]triazolo[1,5-a]pyrazin-6-yl)-5H-pyrrolo[2,3-d]pyrimidin-6(7H)-one]"
20,310,"CC1(c2ccc(Cl)c(F)c2)C(=O)Nc2nc(-c3cn4ncnc4c(CCC(F)(F)F)n3)nc(O)c21 (centres unmarked) [Example 153B, 5-(4-chloro-3-fluorophenyl)-4-hydroxy-5-methyl-2-(8-(3,3,3-trifluoropropyl)-[1,2,4]triazolo[1,5-a]pyrazin-6-yl)-5H-pyrrolo[2,3-d]pyrimidin-6(7H)-one]"
